Reference: patent US20060069132A1, “Azolecarboxamide herbicides” (priority 2004, published 2006)

Tests used:
pigweed = assay: Test B pre-/postemergence herbicide test; type: in vivo, Amaranthus retroflexus; conditions: for Plant response rating (0 to 100 scale), Pigweed: 0 is no effect, 100 is complete control, preemergence
Method in brief: (§1)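 Response was scored visually 13 to 15 days after treatment against untreated greenhouse controls, 0 meaning no effect and 100 complete control. Formulations (solvent mixture plus surfactant) went onto soil after planting, onto foliage of 1- to 4-leaf plants, and onto 2-leaf plants in a flooded paddy set including rice and barnyardgrass.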

wild oat = assay: Test B postemergence herbicide test; type: in vivo, Avena fatua
Method in brief: (§2)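 Plants grow to 1- to 4-leaf stage (2–18 cm) for postemergence spraying, or to 2-leaf stage for the paddy test. Formulated compound is applied. Greenhouse holding lasts 13–15 days. Response is scored visually relative to controls, 0 no effect to 100 complete control; a dash means no result.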

ducksalad = assay: Test B flooded paddy test; type: in vivo, Heteranthera limosa; conditions: 1000 g ai/ha, scale 0 to 100 (0 no effect, 100 complete control)
Method in brief: (§3)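 Visual control ratings, 0–100 versus untreated controls, taken after 13 to 15 days in the greenhouse. Blackgrass received a postemergence spray at the 1- to 4-leaf stage (2–18 cm); ducksalad, umbrella sedge and barnyardgrass were flooded-paddy treated at 2 leaves.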

velvetleaf = assay: Test B pre-/postemergence herbicide test; type: in vivo, Abutilon theophrasti; conditions: for Plant response rating (0 to 100 scale), Velvetleaf: 0 is no effect, 100 is complete control, preemergence
Method in brief: as §1

giant foxtail = assay: Test B pre-/postemergence herbicide test; type: in vivo, Setaria faberi; conditions: for Plant response rating (0 to 100 scale), Foxtail, Giant: 0 is no effect, preemergence
Method in brief: as §1

blackgrass = assay: Test B postemergence herbicide test; type: in vivo, Alopecurus myosuroides
Method in brief: as §3

[1] = tested on: small flower umbrella sedge; assay: Test B flooded paddy test; type: in vivo, Cyperus difformis; conditions: 1000 g ai/ha, scale 0 to 100 (0 no effect, 100 complete control)
Method in brief: as §3

large crabgrass = assay: Test B pre-/postemergence herbicide test; type: in vivo, Digitaria sanguinalis; conditions: for Plant response rating (0 to 100 scale), Crabgrass, Large: 0 is no effect, preemergence
Method in brief: as §1

barnyardgrass [2] = assay: Test B flooded paddy test; type: in vivo, Echinochloa crus-galli; conditions: 1000 g ai/ha, scale 0 to 100 (0 no effect, 100 complete control)
Method in brief: as §3

morningglory = assay: Test B pre-/postemergence herbicide test; type: in vivo, Ipomoea coccinea; conditions: for Plant response rating (0 to 100 scale), Morningglory: 0 is no effect, 100 is complete control, preemergence
Method in brief: as §1

Surinam grass = assay: Test B pre-/postemergence herbicide test; type: in vivo, Urochloa decumbens; conditions: for Plant response rating (0 to 100 scale), Surinam Grass: 0 is no effect, 100 is complete control, preemergence
Method in brief: as §1

wheat = assay: Test B postemergence herbicide test; type: in vivo, Triticum aestivum; parameters: key to Wheat plant response rating: 0 = no effect, 100 = complete control
Method in brief: as §2

cocklebur = assay: Test B pre-/postemergence herbicide test; type: in vivo, Xanthium strumarium; conditions: for Plant response rating (0 to 100 scale), Cocklebur: 0 is no effect, preemergence
Method in brief: as §1

corn = assay: Test B pre-/postemergence herbicide test; type: in vivo, Zea mays; conditions: for Plant response rating (0 to 100 scale), Corn: 0 is no effect, preemergence
Method in brief: as §1

rice = assay: Test B flooded paddy test; type: in vivo, Oryza sativa; conditions: 1000 g ai/ha, scale 0 to 100 (0 no effect, 100 complete control)
Method in brief: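 Postemergence plants were sprayed with formulated test chemicals at 2 to 18 cm height (1- to 4-leaf stage); paddy species were grown to the 2-leaf stage. After 13 to 15 days in a greenhouse, injury was rated visually against untreated controls on a 0–100 scale (0 = no effect, 100 = complete control).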

barnyardgrass [3] = assay: Test B pre-/postemergence herbicide test; type: in vivo, Echinochloa crus-galli; conditions: for Plant response rating (0 to 100 scale), Barnyardgrass: 0 is no effect, preemergence
Method in brief: as §1

lambsquarters = assay: Test B pre-/postemergence herbicide test; type: in vivo, Chenopodium album; conditions: for Plant response rating (0 to 100 scale), Lambsquarters: 0 is no effect, 100 is complete control, preemergence
Method in brief: as §1

[4] = Postemergence, 500 g ai/ha, scale 0 (no effect) to 100 (complete control)
[5] = postemergence, 125 g ai/ha, scale 0 to 100
[6] = 125 g ai/ha, 100 is complete control
[7] = 500 g ai/ha, scale 0 to 100, 0 no effect, 100 complete control, preemergence
[8] = 125 g ai/ha, visual rating, scale 0 (no effect) to 100 (complete control), postemergence
[9] = postemergence, 500 g ai/ha, scale 0 to 100, 0 is no effect, 100 is complete control

In the case of `CCNC(=O)c1ccnc(NC(=O)c2nn(C(C)(C)C)nc2C)c1` [Compound 424], the “Plant response rating (0 to 100 scale), Pigweed” value (pigweed; 125 g ai/ha) is reported as 90, the “Pigweed plant response rating” value (pigweed; [4]) is reported as 60 and the “Pigweed plant response rating” value (pigweed; [5]) is reported as 30. The “Oat, Wild plant response rating” value (wild oat; [4]) was 0, the “Oat, Wild plant response rating” value (wild oat; [5]) was 0 and the “Ducksalad plant response rating” value (ducksalad) was 70. The “Plant response rating (0 to 100 scale), Velvetleaf” value (velvetleaf; 125 g ai/ha) was 20, the “Velvetleaf plant response rating” value (velvetleaf; [4]) was 30 and the “Velvetleaf plant response rating” value (velvetleaf; [5]) was 30. The “Plant response rating (0 to 100 scale), Foxtail, Giant” value (giant foxtail; [6]) was 20, the “Foxtail, Giant plant response rating” value (giant foxtail; [4]) was 30 and the “Foxtail, Giant plant response rating” value (giant foxtail; [5]) was 20. The “Blackgrass plant response rating” value (blackgrass; [4]) was 50, the “Blackgrass plant response rating” value (blackgrass; [5]) was 0 and the “Sedge, Umbrella plant response rating” value [1] was 70. The “Plant response rating (0 to 100 scale), Crabgrass, Large” value (large crabgrass; [6]) was 90, the “Crabgrass, Large plant response rating” value (large crabgrass; [4]) was 30 and the “Crabgrass, Large plant response rating” value (large crabgrass; [5]) was 10. The “Barnyardgrass plant response rating” value (barnyardgrass [2]) was 40, the “Plant response rating (0 to 100 scale), Morningglory” value (morningglory; 125 g ai/ha) was 10 and the “Morningglory plant response rating” value (morningglory; [4]) was 70. For the same compound, the “Morningglory plant response rating” value (morningglory; [5]) was 30, the “Plant response rating (0 to 100 scale), Surinam Grass” value (Surinam grass; 125 g ai/ha) was 30 and the “Surinam Grass plant response rating” value (Surinam grass; [4]) was 30. For the same compound, the “Surinam Grass plant response rating” value (Surinam grass; [5]) was 20, the “Wheat plant response rating” value (wheat; [7]) was 50 and the “Wheat plant response rating” value (wheat; [4]) was 0. The “Wheat plant response rating” value (wheat; [5]) was 0, the “Plant response rating (0 to 100 scale), Cocklebur” value (cocklebur; [6]) was 0 and the “Cocklebur plant response rating” value (cocklebur; [4]) was 30. The “Cocklebur plant response rating” value (cocklebur; [5]) was 20, the “Plant response rating (0 to 100 scale), Corn” value (corn; [6]) was 0 and the “Corn plant response rating” value (corn; [4]) was 10. The “Corn plant response rating” value (corn; [5]) was 0, the “Rice plant response rating” value (rice) was 20 and the “Plant response rating (0 to 100 scale), Barnyardgrass” value (barnyardgrass [3]; [6]) was 20. The “Barnyardgrass plant response rating” value (barnyardgrass [3]; Postemergence, 125 g ai/ha, scale 0 (no effect) to 100 (complete control)) was 10, the “Barnyardgrass plant response rating” value (barnyardgrass [3]; [4]) was 30 and the “Plant response rating (0 to 100 scale), Lambsquarters” value (lambsquarters; 125 g ai/ha) was 70. The “Lambsquarters plant response rating” value (lambsquarters; [4]) was 70 and the “Lambsquarters plant response rating” value (lambsquarters; [5]) was 40.

For `CCOC(=O)c1ccc(F)c(NC(=O)c2nn(C(C)(C)CC)nc2CC)c1` [Compound 373], the “Plant response rating (0 to 100 scale), Pigweed” value (pigweed; 125 g ai/ha) was 0, the “Pigweed plant response rating” value (pigweed; [8]) was 50 and the “Pigweed plant response rating” value (pigweed; [4]) was 70. The “Oat, Wild plant response rating” value (wild oat; [8]) was 10, the “Oat, Wild plant response rating” value (wild oat; [4]) was 30 and the “Ducksalad plant response rating” value (ducksalad) was 0. The “Plant response rating (0 to 100 scale), Velvetleaf” value (velvetleaf; 125 g ai/ha) was 0, the “Velvetleaf plant response rating” value (velvetleaf; [8]) was 20 and the “Velvetleaf plant response rating” value (velvetleaf; [4]) was 30. The “Plant response rating (0 to 100 scale), Foxtail, Giant” value (giant foxtail; [6]) was 0, the “Foxtail, Giant plant response rating” value (giant foxtail; [8]) was 20 and the “Foxtail, Giant plant response rating” value (giant foxtail; [9]) was 30. For the same compound, the “Blackgrass plant response rating” value (blackgrass; [8]) was 0, the “Blackgrass plant response rating” value (blackgrass; [9]) was 10 and the “Sedge, Umbrella plant response rating” value [1] was 20. For the same compound, the “Plant response rating (0 to 100 scale), Crabgrass, Large” value (large crabgrass; [6]) was 0, the “Crabgrass, Large plant response rating” value (large crabgrass; [8]) was 10 and the “Crabgrass, Large plant response rating” value (large crabgrass; [9]) was 10. For the same compound, the “Barnyardgrass plant response rating” value (barnyardgrass [2]) was 20, the “Plant response rating (0 to 100 scale), Morningglory” value (morningglory; 125 g ai/ha) was 0 and the “Morningglory plant response rating” value (morningglory; [8]) was 20. For the same compound, the “Morningglory plant response rating” value (morningglory; [4]) was 20, the “Plant response rating (0 to 100 scale), Surinam Grass” value (Surinam grass; 125 g ai/ha) was 0 and the “Surinam Grass plant response rating” value (Surinam grass; [8]) was 10. The “Surinam Grass plant response rating” value (Surinam grass; [4]) was 20, the “Wheat plant response rating” value (wheat; [8]) was 0 and the “Wheat plant response rating” value (wheat; [7]) was 0. The “Wheat plant response rating” value (wheat; [4]) was 10, the “Plant response rating (0 to 100 scale), Cocklebur” value (cocklebur; [6]) was 0 and the “Cocklebur plant response rating” value (cocklebur; [8]) was 10. For the same compound, the “Cocklebur plant response rating” value (cocklebur; [9]) was 30, the “Plant response rating (0 to 100 scale), Corn” value (corn; [6]) was 0 and the “Corn plant response rating” value (corn; [8]) was 0. For the same compound, the “Corn plant response rating” value (corn; [9]) was 20, the “Rice plant response rating” value (rice) was 0 and the “Plant response rating (0 to 100 scale), Barnyardgrass” value (barnyardgrass [3]; [6]) was 0. The “Barnyardgrass plant response rating” value (barnyardgrass [3]; [8]) was 10, the “Barnyardgrass plant response rating” value (barnyardgrass [3]; [9]) was 20 and the “Plant response rating (0 to 100 scale), Lambsquarters” value (lambsquarters; 125 g ai/ha) was 0. The “Lambsquarters plant response rating” value (lambsquarters; [8]) was 20 and the “Lambsquarters plant response rating” value (lambsquarters; [4]) was 30.
